Converted amounts (≈) assume the structure as drawn. One block for each molecule: values may come before it.
Legend:
[1] = tested on: SK-OV-3; test: Antitumor activity against human SK-OV-3 cells xenografted in athymic nude mouse assessed as tumor volume inhibition at 60 mg/kg per day, po; format: functional
[2] = tested on: NCI-H1975; test: Antitumor activity against human NCI-H1975 cells xenografted in athymic nude mouse assessed as tumor volume inhibition at 60 mg/kg per day, po; format: functional
[3] = tested on: MV4-11; test: Antitumor activity against human MV4-11 cells xenografted in athymic nude mouse assessed as tumor volume inhibition at 60 mg/kg per day, po; format: functional
[4] = tested on: MDA-MB-436; test: Antitumor activity against human MDA-MB-436 cells xenografted in athymic nude mouse assessed as tumor volume inhibition at 60 mg/kg per day, po; format: functional
[5] = tested on: HCT-116; test: Antitumor activity against human HCT-116 cells xenografted in athymic nude mouse assessed as tumor volume inhibition at 60 mg/kg per day, po; format: functional
[6] = tested on: SF-188; test: Antiproliferative activity against human SF-188 cells assessed as cell growth inhibition; format: functional, cell-based
[7] = tested on: U-251; test: Antiproliferative activity against human U-251MG cells assessed as cell growth inhibition; format: functional, cell-based
[8] = Cytotoxicity against human Astrocyte cells assessed as cell growth inhibition; format: toxicity, cell-based
[9] = Aqueous solubility of compound by HPLC method; format: physicochemical; conditions: water (aqueous)
[10] = tested on: HCT-116; test: Antiproliferative activity against human HCT-116 cells assessed as cell growth inhibition measured after 72 hrs by SRB assay; format: functional, cell-based; conditions: HCT-116, 72 h
[11] = tested on: A549; test: Antiproliferative activity against human A549 cells assessed as cell growth inhibition measured after 72 hrs by SRB assay; format: functional, cell-based; conditions: A549, 72 h

Structure (SMILES): CC(=O)SCCCCC[C@H](NC(=O)[C@H]1CCC(=O)N1)C(=O)Nc1ccccc1
inhibition in vivo at 60 mg/kg [1]: 59%
inhibition in vivo at 60 mg/kg [2]: 65%
inhibition in vivo at 60 mg/kg [3]: 70%
inhibition in vivo at 60 mg/kg [4]: 35%
inhibition in vivo at 60 mg/kg [5]: 77%

Structure (SMILES): CCCC(=O)OCOC(=O)CCCc1ccccc1
IC50 [6]: 76000 nM
IC50 [7]: 154000 nM
IC50 [8]: 291000 nM

Structure (SMILES): CN(CCOC(=O)ONC(=O)CCCCCCC(=O)Nc1ccccc1)C(=O)OCc1ccc(O[C@@H]2O[C@H](C(=O)O)[C@@H](O)[C@H](O)[C@H]2O)c([N+](=O)[O-])c1
solubility [9]: 40 mg/mL (≈ 54.3 mM)

Structure (SMILES): CCc1c2c(nc3ccc(O)cc13)-c1cc3c(c(=O)n1C2)COC(=O)[C@@]3(CC)OC(=O)CNC(=O)ONC(=O)CCCCCCC(=O)Nc1ccccc1
IC50 [10]: 113 nM
IC50 [11]: 87.3 nM

Structure (SMILES): CCc1c2c(nc3ccc(O)cc13)-c1cc3c(c(=O)n1C2)COC(=O)[C@]3(O)CC [7-ETHYL-10-HYDROXYCAMPTOTHECIN]
IC50 [10]: 55.1 nM
IC50 [11]: 45.4 nM

The remaining lines, values ahead:

solubility [9]: 80 mg/mL (≈ 101 mM)
Structure (SMILES): CN(CCOC(=O)ONC(=O)/C=C/c1cccc(S(=O)(=O)Nc2ccccc2)c1)C(=O)OCc1ccc(O[C@@H]2O[C@H](C(=O)O)[C@@H](O)[C@H](O)[C@H]2O)c([N+](=O)[O-])c1

solubility [9]: 100 mg/mL (≈ 131 mM)
Structure (SMILES): CN(CCOC(=O)ONC(=O)/C=C/c1cccc(S(=O)(=O)Nc2ccccc2)c1)C(=O)OCc1ccc(O[C@@H]2O[C@H](C(=O)O)[C@@H](O)[C@H](O)[C@H]2O)c(N)c1

solubility [9]: 55 mg/mL (≈ 77.8 mM)
Structure (SMILES): CN(CCOC(=O)ONC(=O)CCCCCCC(=O)Nc1ccccc1)C(=O)OCc1ccc(O[C@@H]2O[C@H](C(=O)O)[C@@H](O)[C@H](O)[C@H]2O)c(N)c1

Source: ChEMBL document CHEMBL5230091, “Histone deacetylase inhibitor based prodrugs” (Eur J Med Chem, 2020)
